Results as given in patent US10266537B2, “3-acetylenyl-pyrazole-pyrimidine derivative, and preparation method therefor and uses thereof” (Si Chuan University, priority 2015, dated 2019).
Like-named read-outs stand apart in the source and are kept apart here. Blank lines part the entries; values can stand above or below the compound they belong to.

Experiments:
c-Src(T341M) = c-Src(T341M) (Homo sapiens (Human), UniProt P12931, T341M); experiment: Kinase inhibition assay (KinaseProfiler, 33P-ATP); type: biochemical
c-RAF = c-RAF (Homo sapiens (Human), UniProt P04049); experiment: Kinase inhibition assay (KinaseProfiler, 33P-ATP); type: biochemical; details: for remaining activity at 10 µM: c-RAF(h), read-out: The percentage of the remaining active protein
Sequence of c-RAF (P04049 whole entry): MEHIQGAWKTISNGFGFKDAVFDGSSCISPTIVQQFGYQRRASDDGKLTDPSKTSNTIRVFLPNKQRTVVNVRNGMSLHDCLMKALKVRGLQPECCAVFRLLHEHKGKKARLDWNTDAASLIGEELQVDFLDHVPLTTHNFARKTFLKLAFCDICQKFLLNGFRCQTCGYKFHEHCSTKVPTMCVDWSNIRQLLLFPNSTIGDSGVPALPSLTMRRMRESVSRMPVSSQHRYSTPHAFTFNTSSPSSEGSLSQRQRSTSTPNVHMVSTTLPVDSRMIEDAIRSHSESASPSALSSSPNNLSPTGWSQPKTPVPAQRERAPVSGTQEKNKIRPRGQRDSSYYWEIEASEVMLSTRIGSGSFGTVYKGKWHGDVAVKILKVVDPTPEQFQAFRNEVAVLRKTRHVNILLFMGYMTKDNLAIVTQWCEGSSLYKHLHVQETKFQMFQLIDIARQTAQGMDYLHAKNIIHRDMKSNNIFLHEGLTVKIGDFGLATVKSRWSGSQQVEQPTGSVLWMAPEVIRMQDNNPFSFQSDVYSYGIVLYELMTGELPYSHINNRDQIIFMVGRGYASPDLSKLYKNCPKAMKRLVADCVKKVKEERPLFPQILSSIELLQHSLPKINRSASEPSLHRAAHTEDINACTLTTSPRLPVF

Fyn = Fyn (Homo sapiens (Human), UniProt P06241); experiment: Kinase inhibition assay (KinaseProfiler, 33P-ATP); type: biochemical; details: for remaining activity at 10 µM: Fyn(h), read-out: The percentage of the remaining active protein; for IC50: Fyn, ATP at Km
Blk = Blk (Homo sapiens (Human), UniProt P51451); experiment: Kinase inhibition assay (KinaseProfiler, 33P-ATP); type: biochemical; details: for remaining activity at 10 µM: Blk(h), read-out: The percentage of the remaining active protein
Sequence of Blk (P51451 whole entry): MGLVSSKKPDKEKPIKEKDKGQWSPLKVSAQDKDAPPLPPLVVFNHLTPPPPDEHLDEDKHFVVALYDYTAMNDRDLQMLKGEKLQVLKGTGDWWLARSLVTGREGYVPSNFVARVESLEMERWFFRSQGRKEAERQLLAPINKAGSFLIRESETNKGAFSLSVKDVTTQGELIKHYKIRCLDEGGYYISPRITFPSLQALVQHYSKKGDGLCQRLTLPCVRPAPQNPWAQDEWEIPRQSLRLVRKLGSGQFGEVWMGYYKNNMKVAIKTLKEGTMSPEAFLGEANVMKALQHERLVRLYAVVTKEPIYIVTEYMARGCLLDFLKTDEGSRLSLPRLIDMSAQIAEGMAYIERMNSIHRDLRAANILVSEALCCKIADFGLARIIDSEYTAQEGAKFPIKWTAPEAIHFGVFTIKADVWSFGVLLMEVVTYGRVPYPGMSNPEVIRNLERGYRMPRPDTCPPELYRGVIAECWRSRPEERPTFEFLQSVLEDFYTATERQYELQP

FGFR1 = FGFR1 (Homo sapiens (Human), UniProt P11362); experiment: Kinase inhibition assay (KinaseProfiler, 33P-ATP); type: biochemical; details: FGFR1(h), read-out: The percentage of the remaining active protein
EphB2 = EphB2 (Homo sapiens (Human), UniProt P29323); experiment: Kinase inhibition assay (KinaseProfiler, 33P-ATP); type: biochemical; details: for remaining activity at 10 µM: EphB2(h), read-out: The percentage of the remaining active protein; for IC50: EphB2, ATP at Km
DDR2 = DDR2 (Homo sapiens (Human), UniProt Q16832); experiment: Kinase inhibition assay (KinaseProfiler, 33P-ATP); type: biochemical; details: for IC50: DDR2, ATP at Km
Btk = Btk (Homo sapiens (Human), UniProt Q06187); experiment: Kinase inhibition assay (KinaseProfiler, 33P-ATP); type: biochemical; details: for remaining activity at 10 µM: BTK(h), read-out: The percentage of the remaining active protein
Sequence of Btk (Q06187 whole entry): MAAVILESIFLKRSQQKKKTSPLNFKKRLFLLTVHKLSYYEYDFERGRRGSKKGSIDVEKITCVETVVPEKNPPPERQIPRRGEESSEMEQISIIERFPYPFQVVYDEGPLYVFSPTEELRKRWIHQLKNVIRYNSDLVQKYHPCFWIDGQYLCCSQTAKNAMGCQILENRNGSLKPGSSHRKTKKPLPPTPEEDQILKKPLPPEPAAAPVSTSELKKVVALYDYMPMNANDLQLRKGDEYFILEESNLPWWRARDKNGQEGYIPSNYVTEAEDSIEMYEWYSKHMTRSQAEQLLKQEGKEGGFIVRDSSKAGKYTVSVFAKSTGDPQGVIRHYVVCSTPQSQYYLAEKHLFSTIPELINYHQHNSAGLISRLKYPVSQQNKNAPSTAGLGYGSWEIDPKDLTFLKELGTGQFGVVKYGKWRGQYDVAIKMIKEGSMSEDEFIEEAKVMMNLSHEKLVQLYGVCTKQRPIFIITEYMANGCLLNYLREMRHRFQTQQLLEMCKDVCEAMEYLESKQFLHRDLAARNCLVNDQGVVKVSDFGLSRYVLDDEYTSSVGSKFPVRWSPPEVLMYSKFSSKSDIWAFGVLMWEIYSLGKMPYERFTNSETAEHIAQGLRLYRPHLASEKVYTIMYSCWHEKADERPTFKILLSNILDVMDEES

IKKβ = IKKβ (Homo sapiens (Human), UniProt O14920); experiment: Kinase inhibition assay (KinaseProfiler, 33P-ATP); type: biochemical; details: IKKβ(h), read-out: The percentage of the remaining active protein
PDGFRα = PDGFRα (Homo sapiens (Human), UniProt P16234); experiment: Kinase inhibition assay (KinaseProfiler, 33P-ATP); type: biochemical; details: for remaining activity at 10 µM: PDGFRα(h), read-out: The percentage of the remaining active protein
Sequence of PDGFRα (P16234 24-1089): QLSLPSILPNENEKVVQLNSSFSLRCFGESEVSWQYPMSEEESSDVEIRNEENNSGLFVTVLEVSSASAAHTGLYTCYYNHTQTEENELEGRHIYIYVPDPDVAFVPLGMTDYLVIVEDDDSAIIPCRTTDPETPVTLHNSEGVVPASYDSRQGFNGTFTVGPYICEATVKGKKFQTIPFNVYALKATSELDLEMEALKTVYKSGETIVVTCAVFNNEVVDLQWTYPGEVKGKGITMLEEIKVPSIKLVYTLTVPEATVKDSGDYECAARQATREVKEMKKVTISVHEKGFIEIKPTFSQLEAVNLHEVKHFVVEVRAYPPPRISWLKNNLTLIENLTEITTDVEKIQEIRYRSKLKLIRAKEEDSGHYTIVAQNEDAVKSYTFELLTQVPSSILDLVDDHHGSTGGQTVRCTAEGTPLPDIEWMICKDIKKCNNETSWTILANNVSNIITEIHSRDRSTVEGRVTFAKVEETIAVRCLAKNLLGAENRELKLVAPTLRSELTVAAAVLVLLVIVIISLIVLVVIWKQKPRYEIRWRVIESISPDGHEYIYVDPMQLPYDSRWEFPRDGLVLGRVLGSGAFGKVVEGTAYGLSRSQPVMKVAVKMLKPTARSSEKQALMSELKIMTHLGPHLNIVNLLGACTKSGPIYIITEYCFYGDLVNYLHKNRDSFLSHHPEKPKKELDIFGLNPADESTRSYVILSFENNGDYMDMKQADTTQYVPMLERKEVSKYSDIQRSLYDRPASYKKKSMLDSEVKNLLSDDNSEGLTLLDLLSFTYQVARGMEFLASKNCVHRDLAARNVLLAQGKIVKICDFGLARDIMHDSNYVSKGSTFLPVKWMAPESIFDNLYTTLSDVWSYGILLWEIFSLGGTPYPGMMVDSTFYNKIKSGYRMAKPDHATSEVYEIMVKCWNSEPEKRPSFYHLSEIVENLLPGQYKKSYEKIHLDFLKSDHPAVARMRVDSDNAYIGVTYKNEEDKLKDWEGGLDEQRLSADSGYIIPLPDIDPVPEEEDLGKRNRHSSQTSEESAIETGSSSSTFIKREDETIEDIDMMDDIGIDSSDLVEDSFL

Tie2 = Tie2 (Homo sapiens (Human), UniProt Q02763); experiment: Kinase inhibition assay (KinaseProfiler, 33P-ATP); type: biochemical; details: Tie2 (h), read-out: The percentage of the remaining active protein
ARK5(h) = ARK5(h) (Homo sapiens (Human), UniProt O60285); experiment: Kinase inhibition assay (KinaseProfiler, 33P-ATP); type: biochemical; details: read-out: The percentage of the remaining active protein
CHK1(h) = CHK1(h) (Homo sapiens (Human), UniProt O14757); experiment: Kinase inhibition assay (KinaseProfiler, 33P-ATP); type: biochemical; details: read-out: The percentage of the remaining active protein
Fer(h) = Fer(h) (Homo sapiens (Human), UniProt P16591); experiment: Kinase inhibition assay (KinaseProfiler, 33P-ATP); type: biochemical; details: read-out: The percentage of the remaining active protein
Fms(h) = Fms(h) (Homo sapiens (Human), UniProt P07333); experiment: Kinase inhibition assay (KinaseProfiler, 33P-ATP); type: biochemical; details: read-out: The percentage of the remaining active protein
GSK3β(h) = GSK3β(h) (Homo sapiens (Human), UniProt P49841); experiment: Kinase inhibition assay (KinaseProfiler, 33P-ATP); type: biochemical; details: read-out: The percentage of the remaining active protein
mTOR(h) = mTOR(h) (Homo sapiens (Human), UniProt P42345); experiment: Kinase inhibition assay (KinaseProfiler, 33P-ATP); type: biochemical; details: read-out: The percentage of the remaining active protein
PAK1(h) = PAK1(h) (Homo sapiens (Human), UniProt Q13153); experiment: Kinase inhibition assay (KinaseProfiler, 33P-ATP); type: biochemical; details: read-out: The percentage of the remaining active protein
Pim-1(h) = Pim-1(h) (Homo sapiens (Human), UniProt P11309); experiment: Kinase inhibition assay (KinaseProfiler, 33P-ATP); type: biochemical; details: read-out: The percentage of the remaining active protein
PKA(h) = PKA(h) (Homo sapiens (Human), UniProt P17612); experiment: Kinase inhibition assay (KinaseProfiler, 33P-ATP); type: biochemical; details: read-out: The percentage of the remaining active protein
PKBβ(h) = PKBβ(h) (Homo sapiens (Human), UniProt P31751); experiment: Kinase inhibition assay (KinaseProfiler, 33P-ATP); type: biochemical; details: read-out: The percentage of the remaining active protein
PKCα(h) = PKCα(h) (Homo sapiens (Human), UniProt P17252); experiment: Kinase inhibition assay (KinaseProfiler, 33P-ATP); type: biochemical; details: read-out: The percentage of the remaining active protein
Tec(h) activated = Tec(h) activated (Homo sapiens (Human), UniProt P42680); experiment: Kinase inhibition assay (KinaseProfiler, 33P-ATP); type: biochemical; details: read-out: The percentage of the remaining active protein
PI3 Kinase a(h) = PI3 Kinase a(h) (Homo sapiens (Human), UniProt P42336); experiment: Kinase inhibition assay (KinaseProfiler, 33P-ATP); type: biochemical; details: read-out: The percentage of the remaining active protein
Miapaca-2 = experiment: Cell proliferation inhibition assay (MTT); type: cell-based; details: Homo sapiens, MIA PaCa-2; Miapaca-2; MTT, 72 hours; read-out: Proliferation inhibitory activity IC50
MDA-MB-435 = experiment: Cell proliferation inhibition assay (MTT); type: cell-based, human; details: Homo sapiens, MDA-MB-435, MTT, 72 hours
[1] = tested on: breast cancer cell line MDA-MB-231; type: in vivo; details: nude mice; for tumor growth inhibition / inhibitory effect compared to positive control: MDA-MB-231 subcutaneous tumor; for tumor growth inhibition: 20 mg/kg per day, oral; for inhibitory effect compared to positive control: vs paclitaxel 10 mg/kg per week tail vein, dasatinib 40 mg/kg daily oral
c-Src(1-530) = c-Src(1-530) (Homo sapiens (Human), UniProt P12931); experiment: Kinase inhibition assay (KinaseProfiler, 33P-ATP); details: for remaining activity at 10 µM: read-out: The percentage of the remaining active protein
Sequence of c-Src(1-530) (P12931 whole entry, looked up): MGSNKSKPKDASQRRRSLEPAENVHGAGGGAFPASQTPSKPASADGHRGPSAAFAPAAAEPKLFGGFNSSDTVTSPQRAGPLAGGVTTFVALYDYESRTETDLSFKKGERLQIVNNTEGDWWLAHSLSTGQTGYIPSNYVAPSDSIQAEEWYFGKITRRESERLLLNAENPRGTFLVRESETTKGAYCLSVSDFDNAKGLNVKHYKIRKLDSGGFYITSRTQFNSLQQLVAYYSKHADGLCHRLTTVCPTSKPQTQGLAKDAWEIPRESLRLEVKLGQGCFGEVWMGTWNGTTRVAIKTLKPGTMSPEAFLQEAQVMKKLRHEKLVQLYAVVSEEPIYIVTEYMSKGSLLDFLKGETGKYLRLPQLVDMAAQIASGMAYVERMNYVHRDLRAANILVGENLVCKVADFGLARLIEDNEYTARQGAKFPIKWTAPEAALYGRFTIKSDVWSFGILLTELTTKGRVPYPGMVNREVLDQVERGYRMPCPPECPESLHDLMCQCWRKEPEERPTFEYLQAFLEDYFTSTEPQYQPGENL

B-Raf = B-Raf (Homo sapiens (Human), UniProt P15056); experiment: Kinase inhibition assay (KinaseProfiler, 33P-ATP); details: for remaining activity at 10 µM: read-out: The percentage of the remaining active protein
Sequence of B-Raf (P15056 whole entry): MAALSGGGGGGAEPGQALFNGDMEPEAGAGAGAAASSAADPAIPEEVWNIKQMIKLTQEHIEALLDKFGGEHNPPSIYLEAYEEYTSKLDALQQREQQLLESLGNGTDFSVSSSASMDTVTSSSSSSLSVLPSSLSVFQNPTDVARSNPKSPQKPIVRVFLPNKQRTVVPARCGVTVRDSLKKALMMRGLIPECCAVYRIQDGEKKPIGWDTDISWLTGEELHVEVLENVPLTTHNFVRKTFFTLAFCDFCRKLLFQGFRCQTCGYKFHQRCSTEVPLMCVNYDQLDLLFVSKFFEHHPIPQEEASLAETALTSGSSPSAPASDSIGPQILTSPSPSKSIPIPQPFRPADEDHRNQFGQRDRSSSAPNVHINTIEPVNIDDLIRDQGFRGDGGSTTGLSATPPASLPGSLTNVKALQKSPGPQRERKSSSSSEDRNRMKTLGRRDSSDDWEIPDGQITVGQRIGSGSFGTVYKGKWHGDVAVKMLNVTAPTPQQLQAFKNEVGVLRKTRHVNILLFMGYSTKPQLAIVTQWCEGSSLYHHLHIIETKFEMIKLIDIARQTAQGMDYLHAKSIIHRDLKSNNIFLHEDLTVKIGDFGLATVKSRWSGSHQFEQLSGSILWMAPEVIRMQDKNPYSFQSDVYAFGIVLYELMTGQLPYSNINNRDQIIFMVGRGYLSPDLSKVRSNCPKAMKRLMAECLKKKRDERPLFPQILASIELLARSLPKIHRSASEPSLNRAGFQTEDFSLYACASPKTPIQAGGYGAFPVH

EphA2 = EphA2 (Homo sapiens (Human), UniProt P29317); experiment: Kinase inhibition assay (KinaseProfiler, 33P-ATP)
Bmx = Bmx (Homo sapiens (Human), UniProt P51813); experiment: Kinase inhibition assay (KinaseProfiler, 33P-ATP); details: for remaining activity at 10 µM: read-out: The percentage of the remaining active protein
Sequence of Bmx (P51813 whole entry): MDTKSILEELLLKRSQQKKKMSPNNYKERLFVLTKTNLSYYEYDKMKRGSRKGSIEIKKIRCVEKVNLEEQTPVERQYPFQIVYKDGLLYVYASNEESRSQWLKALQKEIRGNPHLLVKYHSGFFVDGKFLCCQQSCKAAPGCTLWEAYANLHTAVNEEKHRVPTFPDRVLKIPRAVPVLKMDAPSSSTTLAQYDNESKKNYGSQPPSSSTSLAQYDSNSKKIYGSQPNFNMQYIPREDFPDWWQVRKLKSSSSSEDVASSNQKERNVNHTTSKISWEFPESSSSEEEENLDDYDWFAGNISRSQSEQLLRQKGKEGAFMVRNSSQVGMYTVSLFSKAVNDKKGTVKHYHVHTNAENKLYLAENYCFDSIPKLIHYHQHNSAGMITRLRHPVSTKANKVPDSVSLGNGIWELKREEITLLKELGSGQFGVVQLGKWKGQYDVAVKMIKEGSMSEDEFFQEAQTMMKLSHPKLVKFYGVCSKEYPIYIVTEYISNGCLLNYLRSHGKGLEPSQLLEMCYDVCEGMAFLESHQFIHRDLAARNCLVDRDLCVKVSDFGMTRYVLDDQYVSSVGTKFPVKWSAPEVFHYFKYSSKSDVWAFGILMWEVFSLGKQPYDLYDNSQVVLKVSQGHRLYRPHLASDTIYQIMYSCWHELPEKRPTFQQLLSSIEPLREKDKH

[2] = read-out: Proliferative inhibitory activity MDA-MB-435 (IC50 class)

IC50 (c-Src(T341M); c-Src(T341M), ATP at Km): 3.73 µM | remaining activity at 10 µM (c-RAF; compound at 10 μM): 2% | IC50 (c-RAF; c-RAF, ATP at Km): 0.019 µM | remaining activity at 10 µM (Fyn; compound at 10 μM): -1% | IC50 (Fyn): 0.003 µM | remaining activity at 10 µM (Blk; compound at 10 μM): -1% | IC50 (Blk; Blk, ATP at Km): 0.012 µM | remaining activity at 10 µM (FGFR1; compound at 10 μM): 0% | remaining activity at 10 µM (EphB2; compound at 10 μM): -1% | IC50 (EphB2): 0.01 µM | IC50 (DDR2): 0.074 µM | remaining activity at 10 µM (Btk; compound at 10 μM): -3% | IC50 (Btk; Btk, ATP at Km): 0.127 µM | remaining activity at 10 µM (IKKβ; compound at 10 μM): 42% | remaining activity at 10 µM (PDGFRα; compound at 10 μM): 3% | IC50 (PDGFRα; PDGFRα, ATP at Km): 0.396 µM | remaining activity at 10 µM (Tie2; compound at 10 μM): 3% | remaining activity at 10 µM (ARK5(h); compound at 10 μM): 115% | remaining activity at 10 µM (CHK1(h); compound at 10 μM): 100% | remaining activity at 10 µM (Fer(h); compound at 10 μM): 92% | remaining activity at 10 µM (Fms(h); compound at 10 μM): 1% | remaining activity at 10 µM (GSK3β(h); compound at 10 μM): 99% | remaining activity at 10 µM (mTOR(h); compound at 10 μM): 81% | remaining activity at 10 µM (PAK1(h); compound at 10 μM): 36% | remaining activity at 10 µM (Pim-1(h); compound at 10 μM): 34% | remaining activity at 10 µM (PKA(h); compound at 10 μM): 58% | remaining activity at 10 µM (PKBβ(h); compound at 10 μM): 14% | remaining activity at 10 µM (PKCα(h); compound at 10 μM): 92% | remaining activity at 10 µM (Tec(h) activated; compound at 10 μM): 13% | remaining activity at 10 µM (PI3 Kinase a(h); PI3 Kinase a(h), compound at 10 μM): 98% | IC50 (Miapaca-2): 0.0404 µM | IC50 (MDA-MB-435; read-out: Proliferation inhibitory activity IC50): 0.0147 µM | IC50 (MDA-MB-435; [2]): < 0.1 µM | IC50 (c-Src(1-530); c-Src(1-530), ATP at Km): 0.002 µM | remaining activity at 10 µM (c-Src(1-530)): 0% | IC50 (B-Raf; B-Raf, ATP at Km): 0.022 µM | remaining activity at 10 µM (B-Raf): 1% | IC50 (EphA2): 0.018 µM | IC50 (Bmx): 0.018 µM | remaining activity at 10 µM (Bmx): 0%
Compound: Cc1ccc(NC(=O)c2cccc(C(F)(F)F)c2)cc1C#Cc1nn(C2CCN(C)CC2)c2ncnc(N)c12 [Compound 31]
tumor growth inhibition [1]: significantly inhibit tumor growth | inhibitory effect compared to positive control [1]: superior inhibitory effect compared to positive control (paclitaxel and dasatinib) | toxicity / side effects (weight loss, rash, diarrhea) during administration ([1]; test dose range, daily oral): low toxicity

remaining activity at 10 µM (c-Src(T341M); Src(T341M)(h), 10 μM, read-out: The percentage of the remaining active protein): 20% | remaining activity at 10 µM (c-RAF; 10 μM): 24% | remaining activity at 10 µM (Fyn; 10 μM): 0% | IC50 (Fyn): 0.006 µM | remaining activity at 10 µM (Blk; 10 μM): 0% | remaining activity at 10 µM (FGFR1; 10 μM): 1% | remaining activity at 10 µM (EphB2; 10 μM): -1% | IC50 (EphB2): 0.033 µM | remaining activity at 10 µM (DDR2; DDR2(h), 10 μM, read-out: The percentage of the remaining active protein): 16% | IC50 (DDR2): 0.065 µM | remaining activity at 10 µM (Btk; 10 μM): 10% | remaining activity at 10 µM (IKKβ; 10 μM): 33% | remaining activity at 10 µM (PDGFRα; 10 μM): 60% | remaining activity at 10 µM (Tie2; 10 μM): 1% | remaining activity at 10 µM (ARK5(h); 10 μM): 108% | remaining activity at 10 µM (CHK1(h); 10 μM): 114% | remaining activity at 10 µM (Fer(h); 10 μM): 67% | remaining activity at 10 µM (Fms(h); 10 μM): 4% | remaining activity at 10 µM (GSK3β(h); 10 μM): 26% | remaining activity at 10 µM (mTOR(h); 10 μM): 101% | remaining activity at 10 µM (PAK1(h); 10 μM): 87% | remaining activity at 10 µM (Pim-1(h); 10 μM): 99% | remaining activity at 10 µM (PKA(h); 10 μM): 60% | remaining activity at 10 µM (PKBβ(h); 10 μM): 127% | remaining activity at 10 µM (PKCα(h); 10 μM): 110% | remaining activity at 10 µM (Tec(h) activated; 10 μM): 24% | remaining activity at 10 µM (PI3 Kinase a(h); PI3 Kinase (p110a/p85a)(h), 10 μM): 79% | IC50 (Miapaca-2): < 0.6 µM | IC50 (MDA-MB-435; [2]): < 0.1 µM | remaining activity at 10 µM (c-Src(1-530)): 0% | remaining activity at 10 µM (B-Raf): 7% | remaining activity at 10 µM (EphA2; read-out: The percentage of the remaining active protein): -3% | IC50 (Bmx; Bmx, ATP at Km): 0.021 µM | remaining activity at 10 µM (Bmx): -1%
Compound: Cc1ccc(NC(=O)c2ccc(C)c(C(F)(F)F)c2)cc1C#Cc1nn([C@H]2CC[C@H](O)CC2)c2ncnc(N)c12 [Compound 93]
tumor growth inhibition [1]: significantly inhibit tumor growth | inhibitory effect compared to positive control [1]: superior inhibitory effect compared to the positive control (paclitaxel)
